Measurements as given in publication PMC7961380, “A Systematic Study of the In Vitro Pharmacokinetics and Estimated Human In Vivo Clearance of Indole and Indazole-3-Carboxamide Synthetic Cannabinoid Receptor Agonists Detected on the Illicit Drug Market” (Molecules, 2021).
Values joined by “and” are separate entries in the source; they are usually repeats but may differ in a detail not shown here. Equal values may be shown once. Read-outs that look alike come from different tables or passages of the source.

How the values were obtained:
[1] = Metabolic stability, pooled human cryopreserved hepatocyte incubations; conditions: human, hepatocytes; for CLint scaled at 0.5 µM: Intrinsic clearance, pHHeps, alternative hepatocyte cell density 99x10^6 hepatocytes per gram liver; for half-life at 0.5 µM: T1/2 (min), pHHeps 0.25 million cells mL^−1, 0.5 µM, 37 °C, n ≥ 3 ± SD
[2] = test system: pooled human cryopreserved hepatocytes (pHHeps); assay: as above; conditions: for Predicted In Vivo Hepatic Clearance, CLH: from pHHeps CLint, well-stirred model with plasma fu, Q 21 mL min^−1 kg^−1
[3] = Plasma protein binding by equilibrium dialysis; format: in vitro ADME, human; conditions: human, pooled human plasma, pH 7.4, equilibrium dialysis 5 h, 37 °C
[4] = Metabolic stability, pooled human liver microsome incubations; conditions: for Predicted In Vivo Hepatic Clearance, CLH: from pHLM CLint, well-stirred model with plasma fu, Q 21 mL min^−1 kg^−1; for CLint scaled at 0.5 µM / half-life at 0.5 µM: human, microsomes; for CLint scaled at 0.5 µM: pH 7.4, Intrinsic clearance; for half-life at 0.5 µM: pH 7.4, T1/2 (min), pHLM 0.5 mg mL^−1, 0.5 µM, NADPH, 37 °C; for half-life at 0.5 µM / Microsomal Intrinsic Clearance, CLint micr: n ≥ 3 ± SD
[5] = Short-term plasma stability with and without esterase inhibitors; conditions: human, pH 7.4, Parent Compound Remaining (%), 3 h, 37 °C
[6] = pHHeps, 99x10^6 hepatocytes per gram liver
[7] = 10 µg mL^−1, read-out: PPB (%) (converted)
[8] = plasma, read-out: Fraction Unbound (fu)
[9] = pHLM, alternative microsomal scaling factor 32 mg microsomal protein per gram liver
[10] = pHLM, alternative microsomal scaling factor 45 mg microsomal protein per gram liver
[11] = pHLM, scaling factor 32 mg microsomal protein per gram liver
[12] = pHLM, scaling factor 45 mg microsomal protein per gram liver
[13] = Esterase Inhibitors, pH 7.4, BNPP and PMSF 500 µM each
[14] = plasma, No Esterase Inhibitors, pH 7.4, pooled human plasma

Row | SMILES | CLint scaled at 0.5 µM [1] [mL/min/kg] | half-life at 0.5 µM [1] [min] | Predicted In Vivo Hepatic Clearance, CLH [2] | Hepatic extraction ratio, EH ([2]; from pHHeps incubations) | Hepatic extraction ratio, EH [2, 6] | Predicted in vivo hepatic clearance, CLH [2, 6] [mL/min/kg] | % parent compound remaining, Average ([2]; pHHeps, 3 min) [%] | % parent compound remaining, Average ([2]; pHHeps, 6 min) [%] | % parent compound remaining, Average ([2]; pHHeps, 9 min) [%] | % parent compound remaining, Average ([2]; pHHeps, 15 min) [%] | % parent compound remaining, Average ([2]; pHHeps, 30 min) [%] | % parent compound remaining, Average ([2]; pHHeps, 45 min) [%] | % parent compound remaining, Average ([2]; pHHeps, 60 min) [%] | fraction unbound at 5 h, 10 µg mL^−1 [3, 7] | fraction unbound at 5 h, 10 µg mL^−1 [3, 8] | Predicted In Vivo Hepatic Clearance, CLH [4] | Hepatic extraction ratio, EH ([4]; from pHLM incubations) | CLint scaled at 0.5 µM [4, 9] [mL/min/kg] | CLint scaled at 0.5 µM [4, 10] [mL/min/kg] | half-life at 0.5 µM [4] [min] | further results
1 | CC(C)[C@H](NC(=O)c1nn(Cc2ccc(F)cc2)c2ccccc12)C(N)=O [(S)-AB-FUBINACA (8), N-(1-amino-3-methyl-1-oxobutan-2-yl)-1-(4-fluorobenzyl)-1H-indazole-3-carboxamide] | 101 ± 32 | 76 ± 24 | 2.06 ± 0.58 mL/min/kg | 0.10 ± 0.028 | 0.09 ± 0.026 | 1.92 ± 0.55 | 93.3 | 86.0 | 85.5 | 85.4 | 72.4 | 69.5 | 66.6 | 0.021 | 0.021 ± 0.0044 | 0.34 mL/min/kg and 0.34 ± 0.09 mL/min/kg | 0.02 and 0.02 ± 0.004 | 10 | 14.1 | 118 ± 28 | % parent compound remaining, Average ([4]; pHLM, 3 min): 87.3%; % parent compound remaining, Average ([4]; pHLM, 6 min): 87.3%; % parent compound remaining, Average ([4]; pHLM, 9 min): 85.0%; % parent compound remaining, Average ([4]; pHLM, 15 min): 84.2%; % parent compound remaining, Average ([4]; pHLM, 30 min): 79.6%; Microsomal Intrinsic Clearance, CLint micr ([4]; pHLM): 0.012 ± 0.003 mL min^−1 mg Microsomal Protein^−1; Hepatic extraction ratio, EH [4, 11]: 0.01 ± 0.003; Predicted in vivo hepatic clearance, CLH [4, 11]: 0.21 ± 0.05 mL/min/kg; Hepatic extraction ratio, EH [4, 12]: 0.01 ± 0.004; Predicted in vivo hepatic clearance, CLH [4, 12]: 0.29 ± 0.07 mL/min/kg; remaining at 3 h, 5 µM [5, 13]: 103 ± 2.5%; remaining at 3 h, 5 µM [5, 14]: 104 ± 1.1%
2 | COC(=O)[C@@H](NC(=O)c1cn(CC2CCCCC2)c2ccccc12)C(C)C [(S)-AMB-CHMICA (9), methyl [1-(cyclohexylmethyl)-1H-indole-3-carbonyl]valinate] | 935 ± 44.8 | 7.6 ± 0.35 | 7.68 ± 0.22 mL/min/kg | 0.37 ± 0.011 | 0.35 ± 0.011 | 7.31 ± 0.23 | 65.0 | 58.4 | 43.3 | 23.8 | 8.7 | 3.5 | 1.5 | 0.012 | 0.012 ± 0.0006 | 4.37 ± 0.68 mL/min/kg | 0.21 ± 0.032 | 282 | 397 | 4.1 ± 0.75 | % parent compound remaining, Average ([4]; pHLM, 3 min): 52.7%; % parent compound remaining, Average ([4]; pHLM, 6 min): 35.1%; % parent compound remaining, Average ([4]; pHLM, 9 min): 25.3%; % parent compound remaining, Average ([4]; pHLM, 15 min): 9.9%; % parent compound remaining, Average ([4]; pHLM, 30 min): 2.5%; Microsomal Intrinsic Clearance, CLint micr ([4]; pHLM): 0.343 ± 0.069 mL min^−1 mg Microsomal Protein^−1; Hepatic extraction ratio, EH [4, 11]: 0.14 ± 0.024; Predicted in vivo hepatic clearance, CLH [4, 11]: 2.91 ± 0.50 mL/min/kg; Hepatic extraction ratio, EH [4, 12]: 0.18 ± 0.030; Predicted in vivo hepatic clearance, CLH [4, 12]: 3.87 ± 0.62 mL/min/kg; remaining at 3 h, 5 µM [5, 13]: 90.5 ± 3.4%; remaining at 3 h, 5 µM [5, 14]: 93.9 ± 9.3%
3 | COC(=O)[C@@H](NC(=O)c1nn(CCCCCF)c2ccccc12)C(C)C [(S)-5F-AMB-PINACA (10), methyl [1-(5-fluoropentyl)-1H-indazole-3-carbonyl]valinate] | 2220 ± 115 | 3.2 ± 0.16 | 18.25 mL/min/kg and 18.25 ± 0.12 mL/min/kg | 0.87 and 0.87 ± 0.006 | 0.86 ± 0.006 | 18.06 ± 0.13 | 60.1 | 23.2 | 11.4 | 3.0 | 0.3 | 0.1 | 0.2 | 0.058 | 0.058 ± 0.0008 | 17.79 mL/min/kg and 17.79 ± 0.20 mL/min/kg | 0.85 and 0.85 ± 0.010 | 1230 | 1730 ± 133 | 0.9 ± 0.07 | % parent compound remaining, Average ([4]; pHLM, 3 min): 10.6%; % parent compound remaining, Average ([4]; pHLM, 6 min): 1.8%; % parent compound remaining, Average ([4]; pHLM, 9 min): 0.0%; % parent compound remaining, Average ([4]; pHLM, 15 min): 0.0%; % parent compound remaining, Average ([4]; pHLM, 30 min): 0.0%; Microsomal Intrinsic Clearance, CLint micr ([4]; pHLM): 1.494 ± 0.115 mL min^−1 mg Microsomal Protein^−1; Hepatic extraction ratio, EH [4, 11]: 0.77 ± 0.013; Predicted in vivo hepatic clearance, CLH [4, 11]: 16.21 mL/min/kg; Hepatic extraction ratio, EH [4, 12]: 0.83 ± 0.011; Predicted in vivo hepatic clearance, CLH [4, 12]: 17.35 ± 0.22 mL/min/kg; remaining at 3 h, 5 µM [5, 13]: 89.8 ± 1.5%; remaining at 3 h, 5 µM [5, 14]: 93 ± 6.1%
